Experimental findings from patent US20240336608A1, “IL4I1 INHIBITORS AND METHODS OF USE” (Merck Sharp & Dohme LLC, priority 2023, published 2024) are described below.

This test deals with T1, recombinant IL4I1 (Homo sapiens, UniProt Q96RQ9).
T1 construct: purchased R&D Systems 5684-AO-020
T1 sequence (Q96RQ9 22-567): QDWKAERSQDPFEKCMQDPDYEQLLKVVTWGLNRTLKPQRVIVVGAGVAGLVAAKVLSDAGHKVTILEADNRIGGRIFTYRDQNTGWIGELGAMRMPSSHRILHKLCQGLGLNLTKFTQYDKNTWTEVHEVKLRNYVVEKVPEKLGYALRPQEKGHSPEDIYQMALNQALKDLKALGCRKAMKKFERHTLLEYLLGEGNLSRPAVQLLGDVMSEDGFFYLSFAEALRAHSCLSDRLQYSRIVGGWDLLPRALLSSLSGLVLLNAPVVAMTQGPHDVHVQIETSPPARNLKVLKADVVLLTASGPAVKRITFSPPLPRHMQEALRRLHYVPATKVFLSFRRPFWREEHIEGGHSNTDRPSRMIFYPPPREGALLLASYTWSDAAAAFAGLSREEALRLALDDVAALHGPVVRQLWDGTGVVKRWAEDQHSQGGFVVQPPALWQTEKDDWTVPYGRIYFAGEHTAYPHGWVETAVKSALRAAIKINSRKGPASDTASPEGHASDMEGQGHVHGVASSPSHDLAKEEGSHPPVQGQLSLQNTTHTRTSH
Put plainly: IL4I1 Enzymatic Assay (Amplex Red/HRP coupled detection of H2O2, fluorescence). Type of test: biochemical. The settings on record: 1 nM recombinant IL4I1; four-hour pre-incubation with compound; 1 mM each Phe, Tyr, Trp; ten-point titration. The procedure, abridged:
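H2O2 output was coupled to resorufin fluorescence (ex 544/em 590) via 0.05 mM Amplex Red and 1 U/mL HRP. Substrate: Phe, Tyr, Trp at 1 mM each; enzyme 1 nM, 4 h compound pre-incubation, 120 min reaction, pH 7.0 Hepes. EC50 by nonlinear four-parameter regression, 1:3 ten-point titration.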

The term EC50 denotes the concentration giving half of the maximal effect.

As for `CCc1[nH]nc(C(=O)NCc2nnc(-c3ccccc3)s2)c1C` [Example 47, 5-ethyl-4-methyl-N-((5-phenyl-1,3,4-thiadiazol-2-yl)methyl)-1H-pyrazole-3-carboxamide], the half-maximal effective concentration (EC50) was 155 nM. With `O=C(NCc1nnc(-c2ccccc2)s1)c1cc2n(n1)CCC2` [Example 48, N-[(5-phenyl-1,3,4-thiadiazol-2-yl)methyl]-5,6-dihydro-4H-pyrrolo[1,2-b]pyrazole-2-carboxamide] the figure was 237 nM; with `CC(C)c1cc(C(=O)NCc2nnc(-c3ccccc3)s2)on1` [Example 49, 3-isopropyl-N-[(5-phenyl-1,3,4-thiadiazol-2-yl)methyl]isoxazole-5-carboxamide], 22 nM.

Regarding `Cc1cc(C(=O)NCc2nnc(-c3ccccc3)s2)c(C)n1C` [Example 50, 1,2,5-trimethyl-N-[(5-phenyl-1,3,4-thiadiazol-2-yl)methyl]pyrrole-3-carboxamide], the 50% effective concentration (EC50) is 537 nM. As for `Cn1ccc(C(=O)NCc2nnc(-c3ccccc3)s2)c1` [Example 51, 1-methyl-N-[(5-phenyl-1,3,4-thiadiazol-2-yl)methyl]pyrrole-3-carboxamide], the EC50 turned out to be 118 nM.

`CCn1ccc(C(=O)NCc2nnc(-c3ccccc3)s2)n1` [Example 52, 1-ethyl-N-[(5-phenyl-1,3,4-thiadiazol-2-yl)methyl]pyrazole-3-carboxamide]: the 50% effective concentration (EC50) was found to be 128 nM.

With `Cc1c(C(=O)NCc2nnc(-c3ccccc3)s2)oc2ccccc12` [Example 53, 3-methyl-N-[(5-phenyl-1,3,4-thiadiazol-2-yl)methyl]benzofuran-2-carboxamide], the concentration for a half-maximal effect (EC50) was 357 nM. Turning to `Cn1c(C(=O)NCc2nnc(-c3ccccc3)s2)cc2ccccc21` [Example 54, 1-methyl-N-((5-phenyl-1,3,4-thiadiazol-2-yl)methyl)-1H-indole-2-carboxamide], the EC50 amounted to 322 nM. With `Cc1nonc1C(=O)NCc1nnc(-c2ccccc2)s1` [Example 55, 4-methyl-N-[(5-phenyl-1,3,4-thiadiazol-2-yl)methyl]-1,2,5-oxadiazole-3-carboxamide] the figure was 276 nM. For the molecule `O=C(NCc1nnc(-c2ccccc2)s1)c1cc2c(o1)CCNC2=O` [Example 56, 4-oxo-N-[(5-phenyl-1,3,4-thiadiazol-2-yl)methyl]-6,7-dihydro-5H-furo[3,2-c]pyridine-2-carboxamide], the EC50 stood at 234 nM.

In the case of `Cc1cc(C)c(C(=O)NCc2nnc(-c3ccccc3)s2)o1` [Example 57, 3,5-dimethyl-N-[(5-phenyl-1,3,4-thiadiazol-2-yl)methyl]furan-2-carboxamide], the EC50 is 974 nM. The result for `COc1cc(C(=O)NCc2nnc(-c3ccccc3)s2)on1` [Example 58, 3-methoxy-N-[(5-phenyl-1,3,4-thiadiazol-2-yl)methyl]isoxazole-5-carboxamide] reads 92 nM; that for `O=C(NCc1nnc(-c2ccccc2)s1)c1cn(CC(F)(F)F)nn1` [Example 60, N-((5-phenyl-1,3,4-thiadiazol-2-yl)methyl)-1-(2,2,2-trifluoroethyl)-1H-1,2,3-triazole-4-carboxamide], 4 nM; that for `O=C(NCc1nnc(-c2ccccc2)s1)c1cn(C2CC(F)(F)C2)nn1` [Example 61, 1-(3,3-difluorocyclobutyl)-N-((5-phenyl-1,3,4-thiadiazol-2-yl)methyl)-1H-1,2,3-triazole-4-carboxamide], 68 nM. With `O=C(NCc1nnc(-c2ccccc2)s1)c1cn(CCC(F)(F)F)nn1` [Example 62, N-((5-phenyl-1,3,4-thiadiazol-2-yl)methyl)-1-(3,3,3-trifluoropropyl)-1H-1,2,3-triazole-4-carboxamide] the figure was 7 nM; with `COCC[C@@H](C)n1cc(C(=O)NCc2nnc(-c3ccccc3)s2)nn1` [Example 65, (R)-1-(4-methoxybutan-2-yl)-N-((5-phenyl-1,3,4-thiadiazol-2-yl)methyl)-1H-1,2,3-triazole-4-carboxamide], 68 nM. The result for `COCC[C@H](C)n1cc(C(=O)NCc2nnc(-c3ccccc3)s2)nn1` [Example 66, (S)-1-(4-methoxybutan-2-yl)-N-((5-phenyl-1,3,4-thiadiazol-2-yl)methyl)-1H-1,2,3-triazole-4-carboxamide] reads 221 nM. `O=C(NCc1nnc(-c2ccccc2)s1)c1cn(C2COC2)nn1` [Example 67, 1-(oxetan-3-yl)-N-((5-phenyl-1,3,4-thiadiazol-2-yl)methyl)-1H-1,2,3-triazole-4-carboxamide]: the EC50 was 14 nM. In the case of `O=C(NCc1nnc(-c2ccccc2)s1)c1cn(C2CCC2)nn1` [Example 68, 1-cyclobutyl-N-((5-phenyl-1,3,4-thiadiazol-2-yl)methyl)-1H-1,2,3-triazole-4-carboxamide], the EC50 was 17 nM. The result for `CC(C)(C)OC(=O)N1CC(n2cc(C(=O)NCc3nnc(-c4ccccc4)s3)nn2)C1` [Example 69, tert-butyl 3-(4-(((5-phenyl-1,3,4-thiadiazol-2-yl)methyl)carbamoyl)-1H-1,2,3-triazol-1-yl)azetidine-1-carboxylate] reads 9 nM; that for `NC(=O)Cn1cc(C(=O)NCc2nnc(-c3ccccc3)s2)nn1` [Example 70, 1-(2-amino-2-oxoethyl)-N-((5-phenyl-1,3,4-thiadiazol-2-yl)methyl)-1H-1,2,3-triazole-4-carboxamide], 5 nM.

`N#CCCn1cc(C(=O)NCc2nnc(-c3ccccc3)s2)nn1` [Example 71, 1-(2-cyanoethyl)-N-((5-phenyl-1,3,4-thiadiazol-2-yl)methyl)-1H-1,2,3-triazole-4-carboxamide]: the EC50 came out at 11 nM.

Turning to `CCn1cc(C(=O)NCc2nnc(-c3ccccc3)s2)nn1` [Example 72, 1-ethyl-N-((5-phenyl-1,3,4-thiadiazol-2-yl)methyl)-1H-1,2,3-triazole-4-carboxamide], the EC50 came out at 3 nM. Regarding `CC(C#N)n1cc(C(=O)NCc2nnc(-c3ccccc3)s2)nn1` (stereo not shown) [Example 73, 1-(1-cyanoethyl)-N-((5-phenyl-1,3,4-thiadiazol-2-yl)methyl)-1H-1,2,3-triazole-4-carboxamide], the 50% effective concentration (EC50) amounted to 9 nM. With `N#CCn1cc(C(=O)NCc2nnc(-c3ccccc3)s2)nn1` [Example 74, 1-(cyanomethyl)-N-((5-phenyl-1,3,4-thiadiazol-2-yl)methyl)-1H-1,2,3-triazole-4-carboxamide] the figure was 14 nM.

With `C[C@@H](CO)Cn1cc(C(=O)NCc2nnc(-c3ccccc3)s2)nn1` [Example 75, (R)-1-(3-hydroxy-2-methylpropyl)-N-((5-phenyl-1,3,4-thiadiazol-2-yl)methyl)-1H-1,2,3-triazole-4-carboxamide], the EC50 is 17 nM.

Take `C[C@H](CO)Cn1cc(C(=O)NCc2nnc(-c3ccccc3)s2)nn1` [Example 76, (S)-1-(3-hydroxy-2-methylpropyl)-N-((5-phenyl-1,3,4-thiadiazol-2-yl)methyl)-1H-1,2,3-triazole-4-carboxamide]: the half-maximal effective concentration (EC50) amounted to 4 nM. The result for `O=C(NCc1nnc(-c2ccccc2)s1)c1cn(CC2CCC2)nn1` [Example 77, 1-(cyclobutylmethyl)-N-((5-phenyl-1,3,4-thiadiazol-2-yl)methyl)-1H-1,2,3-triazole-4-carboxamide] reads 12 nM.
